Results published in paper PMC8250858, “A Systematic Study of the Stability, Safety, and Efficacy of the de novo Designed Antimicrobial Peptide PepD2 and Its Modified Derivatives Against Acinetobacter baumannii” (Frontiers in Microbiology, 2021).

Tested on: A. baumannii (ATCC 17978)
Format: cell-based, Acinetobacter baumannii
Details: ex vivo rat blood, 4 μg/mL of each peptide
Method: The time-kill kinetics measurement against A. baumannii (ATCC 17978) in blood was conducted following a protocol modified from the literature ([Nagarajan et al., 2019]). […] Then, 4 μL of the peptide stock solution to be tested (2,035 μg/mL in water) was added to make the final bacterial cell number 10^7 CFU/mL and the final peptide concentration 4 μg/mL (assigned as tube A). At 2, 4, 6, 8, 10, 20, 30, 40, 50, and 60 min, 100 μL of the bacteria/blood mixture was removed from tube A and mixed with 100 μL of sterilized 2 M NaCl/50% glycerol (twofold dilution, assigned as tube B). […] Ten microliters of the mixture from tube B were mixed with 990 μL of sterilized 1 M NaCl (200-fold dilution, assigned as tube C). Ten microliters of the mixture from tube C was mixed with 90 μL of sterilized 1 M NaCl (2,000-fold dilution, assigned as tube D). Finally, ten or one hundred microliters of solution from each tube was plated on an MHA plate and incubated at 37°C overnight to count the colony number. To test whether freezing in liquid nitrogen kills part of the bacteria, pepdD2 was tested with and without freezing. […] At 0 and 60 min, the bacterial number was measured as described above. […] At the indicated time points, an aliquot of the sample was removed and diluted, and the remaining cell number was counted by plating on MHA plates. The data are expressed as the mean ± SD. […]

In the case of Ac-WKKIKKIIKKIKKI-NH2 [pepI2], the “Killing rate compared” value is reported as “killed bacteria faster than pepdD2”.
